# Data published in US20140263071A1, “METHOD FOR COLLECTING METALS” (CHEMEC OY AB, priority 2011, published 2014).
# Marks after values point to notes of the source that are not given here.
# Experiments:
# [1] = Maximum expulsion percent of single metal cations from water solution (Example 8)
# Description: (§1) A water solution (110 ml) containing known amount of single cationic element or elements, typically 0.5-200 ppm, was prepared from Merch Titrisol® standard solution. After adjusting pH by using acid (e.g. HCl or HNO3) or base (e.g. NaOH) to desired initial value, sample A (10 ml) was taken followed by adding 100 mg of selected solid complexation agent. The mixture was stirred at room temperature for 24 h and sample B (10 ml) was taken. Samples A and B were filtrated separately trough 0.2 μm syringe filter and the concentration of the studied element or elements in both solution was determined by using atomic absorption spectrophotometer. The expulsion percent was determined from the concentration differences between the sample solutions A and B.
# The maximum expulsion percent and pH value in which the value was achieved was determined for each single cationic element using the general procedure mentioned above.
# [2] = Effect of complexation agent amount on expulsion percent (Example 11); conditions: Ca^2+ 2 ppm, pH 2.9
# Description: as §1
# Effect of amount of complexation agent 1a to expulsion percent was tested with 2.0 ppm calcium (Ca^2+) solution. A solution (100 ml) containing 2.0 ppm of calcium was stirred for 24 h with desired amount of complexation agent 1a (25 to 301 mg) at pH 2.9. Expulsions percent were determined for each solution using the general procedure and the results are collected in Table 6.
# [3] = Collection of gold from TS 5 (Example 21); conditions: Au^3+ spiked TS 5, pH 3.0, 1a 5 g
# Description: A test solution containing 1-15 mg/l of Al^3+, Fe^2/3+, Mg^2+, Mn^2+, Ni^2+ and Zn^2+; 0.1-0.9 mg/l of Ca^2+ and Na^+; and trace amount of other Cr^3+, Co^2+, Cu^2+, Eu^3+, La^3+, Nd^3+, Y^3+, UO2^2+ and Nb^5+ cations were prepared.
# TS 5 (100 ml) was spiked with Au^3+ (87.7 mg/ml) Merch Titrisol® standard solution. After pH of the mixture was adjusted to 3.0 by HNO3 sample A was taken followed by adding 1a (5 g). The mixture was stirred at room temperature for 24 h and a sample B was taken. Samples A and B were filtrated separately trough 0.2 μm syringe filter and the concentration of selected element in both solution was determined by using ICP-AES method. The expulsion percent for selected elements were determined from the concentration differences between the samples A and B. Results of gold recovery from TS 5 is given in Table 15.
# [4] = Recycling and regeneration of solid bisphosphonate material (Example 27); conditions: 1a 700 mg
# Description: Compound 1a (700 mg) was weighed on sintered disc (porosity G-4) and aqueous CuCl2x2 H2O (20 ml) solution containing ca. 47 700 ppm of copper was passed slowly through the powder under vacuum. […] After the sintered disc was dry, aqueous HCl (25 ml, 2M) was passed slowly through the sintered disc. During this regeneration process solid bisphoshonate material on sintered disc turned from blue to white and filtered HCl solution was pale blue. The same procedure using the original 1a powder on sintered disc and a fresh CuCl2x2 H2O (20 ml) solution was repeated 20 times. The copper concentrations measured by AAS of the filtered HCl solution was 2294 ppm, 859 ppm and 713 ppm after first, 10th and 20th regeneration cycle, respectively. The amount of 1a after the last regeneration step was 630 mg (90% of the original amount).
# [5] = Purification of waste water containing heavy metals, TS 2 (Example 17)
# Description: Waste water sample from dumping site containing some heavy metals: ca. 2 g/l of Ca^2+; […] of As^3+ (or As^5+), Cr^3+, Fe^2/3+, Pb^2+, Sr^2+, Zn^2+ and Hg^2+; pH 3.56.
# TS 2 (100 ml), which initial metal cation concentrations were determined by AAS and ICP-AES methods, was treated with 1a (1.0 g) with stirring for 24 h. After filtration trough 0.2 μm syringe filter metal concentrations in solution were determined.
structure (smiles),measurement,setting,value
"NCCCCCCCCCCC(O)(P(=O)(O)O)P(=O)(O)O [Compound 1a, 11-Amino-1-hydroxyundecane-1,1-diyldiphosphonic acid]",Expulsion-% (maximum),"[1]; Ag^+, pH 2.0, initial 1 ppm",100%
same,Expulsion-% (maximum),"[1]; Al^3+, pH 2.1, initial 10 ppm",96.9%
same,Expulsion-% (maximum),"[1]; Au^3+, pH 0.5, initial 1 ppm",63.3%
same,Expulsion-% (maximum),"[1]; Ba^2+, pH 3.0, initial 10 ppm",90.2%
same,Expulsion-% (maximum),"[1]; Bi^3+, pH 3.0, initial 10 ppm",100%
same,Expulsion-% (maximum),"[1]; Ca^2+, pH 2.6, initial 2 ppm",69.9%
same,Expulsion-% (maximum),"[1]; Cd^2+, pH 3.6, initial 0.5 ppm",97.3%
same,Expulsion-% (maximum),"[1]; Co^2+, pH 3.4, initial 1 ppm",85.0%
same,Expulsion-% (maximum),"[1]; Cr^3+, pH 3.1, initial 2 ppm",97.2%
same,Expulsion-% (maximum),"[1]; Cr^6+, pH 6.6, initial 2 ppm",0%
same,Expulsion-% (maximum),"[1]; Cu^2+, pH 3.5, initial 2 ppm",95.7%
same,Expulsion-% (maximum),"[1]; Cu^+, pH 2.4, initial 2 ppm",85.3%
same,Expulsion-% (maximum),"[1]; Eu^3+, pH 4.0, initial 5 ppm",85.3%
same,Expulsion-% (maximum),"[1]; Fe^2+, pH 6.5, initial 1 ppm",93.0%
same,Expulsion-% (maximum),"[1]; Fe^3+, pH 3.1, initial 1 ppm",98.9%
same,Expulsion-% (maximum),"[1]; Ga^3+, pH 0.5, initial 50 ppm",1.0%
same,Expulsion-% (maximum),"[1]; Gd^3+, pH 1.5, initial 100 ppm",0%
same,Expulsion-% (maximum),"[1]; Hg^2+, pH 5.0, initial 0.1 ppm",93.0%
same,Expulsion-% (maximum),"[1]; Hg^+, pH 3.0, initial 1 ppm",89.4%
same,Expulsion-% (maximum),"[1]; In^3+, pH 2.1, initial 20 ppm",73.4%
same,Expulsion-% (maximum),"[1]; Ir^3+, pH 0.6, initial 100 ppm",66.1%
same,Expulsion-% (maximum),"[1]; K^+, pH 4.2, initial 1 ppm",0%
same,Expulsion-% (maximum),"[1]; La^3+, pH 3.0, initial 100 ppm",54.1%
same,Expulsion-% (maximum),"[1]; Li^+, pH 3.9, initial 0.5 ppm",4.8%
same,Expulsion-% (maximum),"[1]; Mg^2+, pH 2.9, initial 0.5 ppm",64.3%
same,Expulsion-% (maximum),"[1]; Mn^2+, pH 3.4, initial 1 ppm",93.8%
same,Expulsion-% (maximum),"[1]; Mo^6+, pH 8.9, initial 10 ppm",80.8%
same,Expulsion-% (maximum),"[1]; Na^+, pH 3.9, initial 0.5 ppm",0%
same,Expulsion-% (maximum),"[1]; Nb^5+, pH 8.5, initial 100 ppm",100%
same,Expulsion-% (maximum),"[1]; Nd^3+, pH 4.1, initial 100 ppm",98.1%
same,Expulsion-% (maximum),"[1]; Ni^2+, pH 3.3, initial 1 ppm",78.6%
same,Expulsion-% (maximum),"[1]; Os^4+, pH 0.5, initial 100 ppm",85.8%
same,Expulsion-% (maximum),"[1]; Pb^2+, pH 3.2, initial 5 ppm",99.6%
same,Expulsion-% (maximum),"[1]; Pd^2+, pH 8.0, initial 5 ppm",77.8%
same,Expulsion-% (maximum),"[1]; Pt^2+, pH 0.5, initial 25 ppm",70.0%
same,Expulsion-% (maximum),"[1]; Rh^3+, pH 4.0, initial 10 ppm",77.7%
same,Expulsion-% (maximum),"[1]; Ru^3+, pH 2.0, initial 10 ppm",48.5%
same,Expulsion-% (maximum),"[1]; Sb^3+, pH 3.0, initial 10 ppm",100%
same,Expulsion-% (maximum),"[1]; Sc^3+, pH 2.0, initial 5 ppm",100%
same,Expulsion-% (maximum),"[1]; Si^4+, pH 1.0, initial 50 ppm",1.3%
same,Expulsion-% (maximum),"[1]; Sn^2+, pH 7.0, initial 50 ppm",98.1%
same,Expulsion-% (maximum),"[1]; Sn^4+, pH 10.3, initial 200 ppm",100%
same,Expulsion-% (maximum),"[1]; Sr^2+, pH 5.0, initial 2 ppm",93.2%
same,Expulsion-% (maximum),"[1]; Ti^4+, pH 9.8, initial 50 ppm",48.8%
same,Expulsion-% (maximum),"[1]; U^6+, pH 3.4, initial 2.5 ppm",87.6%
same,Expulsion-% (maximum),"[1]; V^4+, pH 0.5, initial 100 ppm",69.3%
same,Expulsion-% (maximum),"[1]; W^6+, pH 1.6, initial 50 ppm",12.0%
same,Expulsion-% (maximum),"[1]; Y^3+, pH 2.1, initial 25 ppm",89.1%
same,Expulsion-% (maximum),"[1]; Zn^2+, pH 3.7, initial 0.5 ppm",94.7%
same,Expulsion-% (maximum),"[1]; Zr^4+, pH 0.5, initial 100 ppm",81.5%
same,Expulsion [%],[2]; 25 mg of 1a in 100 ml,41.3%
same,Expulsion [%],[2]; 52 mg of 1a in 100 ml,45.9%
same,Expulsion [%],[2]; 75 mg of 1a in 100 ml,53.6%
same,Expulsion [%],[2]; 101 mg of 1a in 100 ml,59.4%
same,Expulsion [%],[2]; 125 mg of 1a in 100 ml,63.6%
same,Expulsion [%],[2]; 150 mg of 1a in 100 ml,67.1%
same,Expulsion [%],[2]; 175 mg of 1a in 100 ml,70.2%
same,Expulsion [%],[2]; 200 mg of 1a in 100 ml,71.0%
same,Expulsion [%],[2]; 225 mg of 1a in 100 ml,76.6%
same,Expulsion [%],[2]; 250 mg of 1a in 100 ml,79.6%
same,Expulsion [%],[2]; 275 mg of 1a in 100 ml,85.6%
same,Expulsion [%],[2]; 301 mg of 1a in 100 ml,83.5%
same,Expulsion [%],[3]; Al^3+,87.9%
same,Expulsion [%],[3]; Au^3+,65.0^1) %
same,Expulsion [%],[3]; Cr^3+,2.6%
same,Expulsion [%],[3]; Fe^2/3+,≥ 96.6^2) %
same,Expulsion [%],[3]; Mg^2+,0%
same,Expulsion [%],[3]; Mn^2+,0%
same,Expulsion [%],[3]; Ni^2+,1.3%
same,Expulsion [%],[3]; Zn^2+,1.4%
same,copper concentration of the filtered HCl solution,[4]; after 10th regeneration cycle,859 ppm
same,copper concentration of the filtered HCl solution,[4]; after 20th regeneration cycle,713 ppm
same,copper concentration of the filtered HCl solution,[4]; after first regeneration cycle,2294 ppm
same,Expulsion [%],[5]; As^3/5+,≥ 61.7^2) %
same,Expulsion [%],[5]; Ca^2+,75.4%
same,Expulsion [%],[5]; Cd^2+,≥ 89.4^5) %
same,Expulsion [%],[5]; Cr^3+,23.9%
same,Expulsion [%],[5]; Fe^2/3+,22.8%
same,Expulsion [%],[5]; Hg^1/2+ (CVAAS),99.0^1) %
same,Expulsion [%],[5]; Pb^2+,≥ 68.9^5) %
same,Expulsion [%],[5]; Sr^2+,84.3%
same,Expulsion [%],[5]; Zn^2+,76.8%
